Source: patent US10385022B2, “3-amino-pyridines as GPBAR1 agonists” (HOFFMANN-LA ROCHE INC., priority 2011, dated 2019)

Target: human GPBAR1 receptor (Homo sapiens (Human), UniProt Q8TDU6)
Assay: functional cAMP assay in CHO-dhfr(minus) cells expressing human GPBAR1 receptors
Format: cell-based
Settings: CHO-dhfr(minus) cells expressing human GPBAR1, 30 min at 30° C.
Experimental: The final clone was verified by DNA sequence analysis. The plasmid was transfected into CHO cells deficient in dihydrofolate reductase activity (CHO-dhfr-) using Lipofectamine plus (Invitrogen). Clones were isolated in limited dilution conditions and identified by activities in the cAMP assay using lithocholic acid as agonist.
EC50 values were determined using Activity Base analysis (ID Business Solution, Limited). […] Specificity for GPBAR1 was tested in non-transfected CHO cells in the same assay as above.

Chain of human GPBAR1 receptor (Q8TDU6 whole entry): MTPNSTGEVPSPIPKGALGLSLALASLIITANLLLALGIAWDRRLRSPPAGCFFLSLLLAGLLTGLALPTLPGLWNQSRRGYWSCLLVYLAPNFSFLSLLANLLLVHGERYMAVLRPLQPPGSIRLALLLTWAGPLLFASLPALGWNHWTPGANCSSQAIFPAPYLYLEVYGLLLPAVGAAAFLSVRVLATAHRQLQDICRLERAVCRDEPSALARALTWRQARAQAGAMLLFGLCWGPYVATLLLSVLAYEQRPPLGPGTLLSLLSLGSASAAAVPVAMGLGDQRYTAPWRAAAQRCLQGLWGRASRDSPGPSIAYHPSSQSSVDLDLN

Structure (SMILES) | EC50 [nM]
COc1ccc(-c2ccncc2N(C)C(=O)c2cc(C(F)(F)F)cc(C(F)(F)F)c2)cn1 [Example 99, N-(6-Methoxy-[3,4′]bipyridinyl-3′-yl)-N-methyl-3,5-bis-trifluoromethyl-benzamide] | 2940
COC(=O)CN(C(=O)c1cc(C(F)(F)F)cc(S(C)(=O)=O)c1)c1cnccc1-c1ccccc1Cl [Example 289, [[4-(2-Chloro-phenyl)-pyridin-3-yl]-(3-methanesulfonyl-5-trifluoromethyl-benzoyl)-amino]-acetic acid methyl ester] | 275
Cc1ccccc1-c1ccncc1N(C)C(=O)c1ccc(Cl)c(Cl)c1 [Example 10, 3,4-Dichloro-N-methyl-N-(4-o-tolyl-pyridin-3-yl)-benzamide] | 238
CS(=O)(=O)CCN(C(=O)c1cc(C(F)(F)F)cc(S(C)(=O)=O)c1)c1cnccc1-c1ccccc1OC(F)(F)F [Example 308, 3-Methanesulfonyl-N-(2-methanesulfonyl-ethyl)-N-[4-(2-trifluoromethoxy-phenyl)-pyridin-3-yl]-5-trifluoromethyl-benzamide] | 936
CN(C(=O)c1ccc(Br)c(C(F)(F)F)c1)c1cnccc1-c1ccccc1Cl [Example 80, 4-Bromo-N-[4-(2-chloro-phenyl)-pyridin-3-yl]-N-methyl-3-trifluoromethyl-benzamide] | 299
COCCOc1cc(C(=O)N(C)c2cnccc2-c2ccc(F)cc2OC)cc(C(F)(F)F)c1 [Example 236, N-[4-(4-Fluoro-2-methoxy-phenyl)-pyridin-3-yl]-3-(2-methoxy-ethoxy)-N-methyl-5-trifluoromethyl-benzamide] | 886

These reach a lower EC50. Values come first.

EC50 [nM] | Structure (SMILES)
89 | Cc1ccccc1-c1ccncc1N(C)C(=O)c1cc(C(F)(F)F)cc(C(F)(F)F)n1 [Example 190, 4,6-Bis-trifluoromethyl-pyridine-2-carboxylic acid methyl-(4-o-tolyl-pyridin-3-yl)-amide]
166 | COc1cc(F)c(F)cc1-c1ccncc1N(C)C(=O)c1cc(C(F)(F)F)cc(S(C)(=O)=O)c1 [Example 137, N-[4-(4,5-Difluoro-2-methoxy-phenyl)-pyridin-3-yl]-3-methanesulfonyl-N-methyl-5-trifluoromethyl-benzamide]
17 | COc1cccc(F)c1-c1ccncc1N(C)C(=O)c1cc(C(F)(F)F)cc(S(C)(=O)=O)c1 [Example 205, N-[4-(2-Fluoro-6-methoxy-phenyl)-pyridin-3-yl]-3-methanesulfonyl-N-methyl-5-trifluoromethyl-benzamide]
207 | Cc1ccccc1-c1ccncc1N(C)C(=O)c1cc(Cl)cc(OC(F)(F)F)c1 [Example 100, 3-Chloro-N-methyl-N-(4-o-tolyl-pyridin-3-yl)-5-trifluoromethoxy-benzamide]
190 | COc1c(F)cc(F)cc1-c1ccncc1N(C)C(=O)c1cc(C(F)(F)F)cc(C(F)(F)F)c1 [Example 59, N-[4-(3,5-Difluoro-2-methoxy-phenyl)-pyridin-3-yl]-N-methyl-3,5-bis-trifluoromethyl-benzamide]
109 | COc1cccc(-c2ccncc2N(C)C(=O)c2cc(C(F)(F)F)cc(C(F)(F)F)c2)n1 [Example 98, N-(6-Methoxy-[2,4′]bipyridinyl-3′-yl)-N-methyl-3,5-bis-trifluoromethyl-benzamide]
49 | COC(=O)CN(C(=O)c1cc(C(F)(F)F)cc(S(=O)(=O)N(C)C)c1)c1cnccc1-c1cccnc1OC [Example 178, Methyl 2-(3-(N,N-dimethylsulfamoyl)-N-(2-methoxy-3,4′-bipyridin-3′-yl)-5-(trifluoromethyl)benzamido)acetate]
76 | COc1cc(F)ccc1-c1ccncc1N(C)C(=O)c1cc(F)cc(C(F)(F)F)c1 [Example 129, 3-Fluoro-N-[4-(4-fluoro-2-methoxy-phenyl)-pyridin-3-yl]-N-methyl-5-trifluoromethyl-benzamide]
